Columns and labels:
[1] = biological target: human orexin-1 receptor (Homo sapiens (Human), UniProt O43613); assay: In vitro assay: intracellular calcium measurements (FLIPR), antagonistic activity; type: cell-based; conditions: CHO cells expressing human orexin-1 receptor, orexin-A agonist, geometric mean, read-out: IC50 Ox1
Procedure, shortened: (§1)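 Read-out: FLIPR fluo-4 calcium peak height in CHO cells bearing human orexin-1 or orexin-2 receptor, relative to orexin-A (approx. EC70) with vehicle. Antagonist preincubation 120 min; agonist orexin-A at 3 nM final. IC50 possibly normalized to an on-plate reference compound.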

[2] = biological target: human orexin-2 receptor (Homo sapiens (Human), UniProt O43614); assay: as above; type: cell-based; conditions: CHO cells expressing human orexin-2 receptor, orexin-A agonist, geometric mean, read-out: IC50 Ox2
Procedure, shortened: as §1

Chain of human orexin-2 receptor (O43614 whole entry): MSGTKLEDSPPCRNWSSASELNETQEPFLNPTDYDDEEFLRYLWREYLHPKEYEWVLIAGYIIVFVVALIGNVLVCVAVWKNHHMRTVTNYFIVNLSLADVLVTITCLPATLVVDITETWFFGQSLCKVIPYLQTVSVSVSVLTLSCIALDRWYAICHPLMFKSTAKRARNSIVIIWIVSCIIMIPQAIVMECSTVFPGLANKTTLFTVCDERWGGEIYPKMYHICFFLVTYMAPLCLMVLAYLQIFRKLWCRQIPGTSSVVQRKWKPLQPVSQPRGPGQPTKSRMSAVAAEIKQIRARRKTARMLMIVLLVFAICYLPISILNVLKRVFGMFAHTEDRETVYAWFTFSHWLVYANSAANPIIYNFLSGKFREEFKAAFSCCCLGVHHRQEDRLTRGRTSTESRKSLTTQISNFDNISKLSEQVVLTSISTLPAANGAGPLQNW
Chain of human orexin-1 receptor (O43613 whole entry): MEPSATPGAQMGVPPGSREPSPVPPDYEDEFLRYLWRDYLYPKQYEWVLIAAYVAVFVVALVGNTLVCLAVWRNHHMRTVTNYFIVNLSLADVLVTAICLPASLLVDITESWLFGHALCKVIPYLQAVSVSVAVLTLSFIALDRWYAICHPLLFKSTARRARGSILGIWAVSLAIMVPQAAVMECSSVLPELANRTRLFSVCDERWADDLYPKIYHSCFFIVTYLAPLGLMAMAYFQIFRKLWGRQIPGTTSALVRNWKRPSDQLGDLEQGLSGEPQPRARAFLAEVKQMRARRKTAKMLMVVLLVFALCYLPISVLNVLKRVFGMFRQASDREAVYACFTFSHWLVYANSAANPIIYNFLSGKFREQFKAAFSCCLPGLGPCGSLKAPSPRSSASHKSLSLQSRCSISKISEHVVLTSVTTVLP

| Structure (SMILES) | IC50 [1] [nM] | IC50 [2] [nM] |
| --- | --- | --- |
| C=C1C[C@@H](c2nc3cc(OC)ccc3[nH]2)N(C(=O)c2ncsc2-c2cccc(Cl)c2)C1 [Ex. 6.32] | 814 | 103 |
| C=C1C[C@@H](c2nc3cc(C)c(C)cc3[nH]2)N(C(=O)c2c(-n3nccn3)ccc(C)c2F)C1 [Ex. 6.196] | 59 | 12 |
| Cc1ccc(-c2ccc(C)cc2C(=O)N2CCC[C@@]2(C)c2nc3cc(C(F)(F)F)ccc3[nH]2)cc1 [Ex. 5.192] | 23 | 88 |
| Cc1nc(C(=O)N2CC[C@H](C)[C@H]2c2nc3cc(Cl)c(C)cc3[nH]2)c(-c2ccc(Cl)cc2)s1 [Ex. 4.78] | 3 | 1630 |
| CO[C@@H]1C[C@@H](c2nc3ccc(Cl)c(C)c3[nH]2)N(C(=O)c2cc(C)c(C)cc2-n2nccn2)C1 [Ex. 3.16] | 24 | 2 |
| C=C1C[C@@H](c2nc3cccc(C)c3[nH]2)N(C(=O)c2nc(C)ccc2-n2nccn2)C1 [Ex. 6.115] | 333 | 9 |
| Cc1cc2[nH]c([C@@H]3[C@@H](C)CCN3C(=O)c3cc(F)ccc3-c3ncccn3)nc2cc1Cl [Ex. 4.131] | 23 | 501 |
| Cc1nc(C(=O)N2CCC[C@H]2c2nc3c(C)cc(Br)cc3[nH]2)c(-c2ccccc2)s1 [Ex. 1.144] | 33 | 27 |
| C=C1C[C@@H](c2nc3cc(C)c(C)cc3[nH]2)N(C(=O)c2c(F)cccc2-n2nccn2)C1 [Ex. 6.191] | 134 | 7 |
| C=C1C[C@@H](c2nc3ccc(OC)cc3[nH]2)N(C(=O)c2cc(C)ccc2-n2cccn2)C1 [Ex. 6.137] | 4950 | 23 |
| Cc1ccc(-c2ccccc2F)c(C(=O)N2CCC[C@@]2(C)c2nc3cc(C)c(C)cc3n2CCF)c1 [Ex. 7.52] | 27 | 60 |
| CSc1ccc2nc([C@@H]3CCCN3C(=O)c3cnc(C)nc3-c3ccc(F)cc3)[nH]c2c1 [Ex. 1.50] | 394 | 107 |
| COc1ccc(OC)c2[nH]c([C@]3(C)CCCN3C(=O)c3cc(C)ccc3-n3nccn3)nc12 [Ex. 5.31] | 44 | 740 |
| Cc1nc(C(=O)N2CC[C@H](C)[C@H]2c2nc3c(C)c(Cl)ccc3[nH]2)c(-c2cc(F)cc(F)c2)s1 [Ex. 4.67] | 0.9 | 251 |
| CO[C@H]1CN(C(=O)c2ccc(C)cc2-n2nccn2)C(C)(c2nc3c(C)c(Cl)ccc3[nH]2)C1 (some centres unmarked) [Ex. 3.49] | 13 | 18 |
| C=C1C[C@@H](c2nc3ccc(Cl)c(C)c3[nH]2)N(C(=O)c2nc(C)sc2-c2ccc(Cl)cc2)C1 [Ex. 6.119] | 14 | 3 |
| COc1ccc(-n2nccn2)c(C(=O)N2C[C@H](OC)CC2(C)c2nc3c(C)c(Cl)ccc3[nH]2)c1F (some centres unmarked) [Ex. 3.46] | 223 | 288 |
| COc1cc(C(=O)N2CCC[C@@]2(C)c2nc3c(C)c(Cl)ccc3[nH]2)c(-n2nccn2)cc1OC [Ex. 5.39] | 36 | 20 |
| Cc1cc2[nH]c([C@@H]3[C@@H](C)CCN3C(=O)c3cc(F)ccc3-c3ccccc3)nc2cc1Cl [Ex. 4.105] | 5 | 177 |
| Cc1ccc(-n2nccn2)c(C(=O)N2CCC[C@@]2(C)c2nc3cc(F)c(Br)cc3[nH]2)n1 [Ex. 5.131] | 15 | 178 |

| Structure (SMILES) | IC50 [1] [nM] | IC50 [2] [nM] |
| --- | --- | --- |
| Cc1nc(C(=O)N2CC[C@H](C)[C@H]2c2nc3c(F)cccc3[nH]2)c(-c2cccc(Cl)c2)s1 [Ex. 4.18] | 43 | 2930 |
| Cc1c(Cl)ccc2nc([C@]3(C)CCCN3C(=O)c3cc(F)ccc3-c3ccccn3)[nH]c12 [Ex. 5.219] | 19 | 72 |
| CSc1cccc2nc([C@@H]3CCCN3C(=O)c3nc(C)sc3-c3cccc(F)c3)[nH]c12 [Ex. 1.65] | 63 | 147 |
| Cc1nc(C(=O)N2CCCC2c2nc3c(C(F)(F)F)cccc3[nH]2)c(-c2ccccc2)s1 (centres unmarked) [Ex. 1.129] | 93 | 124 |
| Cc1ccc(-n2cccn2)c(C(=O)N2CCC[C@@]2(C)c2nc3cc(C(F)(F)F)ccc3[nH]2)n1 [Ex. 5.177] | 76 | 860 |
| COc1cccc(-c2ccc(C)cc2C(=O)N2CCC[C@@]2(C)c2nc3cc(C(F)(F)F)c(Cl)cc3[nH]2)c1 [Ex. 5.149] | 21 | 26 |
| C=C1C[C@@H](c2nc3ccc(Cl)c(C)c3[nH]2)N(C(=O)c2nc(C)sc2-c2cccc(C)c2)C1 [Ex. 6.122] | 0.9 | 0.6 |
| C[C@@]1(c2nc3cc(C(F)(F)F)ccc3[nH]2)CCCN1C(=O)c1cc(C(F)(F)F)ccc1-n1nccn1 [Ex. 5.172] | 92 | 704 |
| Cc1nc(C(=O)N2CCCC2c2nc3c(F)cccc3[nH]2)c(-c2cccc(Cl)c2)s1 (centres unmarked) [Ex. 1.104] | 657 | 769 |
| Cc1ccc(-c2ncccn2)c(C(=O)N2CC[C@H](C)[C@H]2c2nc3cc(Cl)cc(C)c3[nH]2)c1 [Ex. 4.182] | 7 | 694 |
| Cc1ccc(-n2cccn2)c(C(=O)N2CCC[C@@]2(C)c2nc3cc(C(F)(F)F)ccc3[nH]2)c1 [Ex. 5.175] | 24 | 355 |
| COc1cc2nc([C@]3(C)CCCN3C(=O)c3cc(F)ccc3-n3nccn3)[nH]c2cc1OC [Ex. 5.65] | 200 | 154 |
| Cc1ccc(-n2nccn2)c(C(=O)N2CC[C@H](C)[C@H]2c2nc3cc(Cl)c(C)cc3[nH]2)c1 [Ex. 4.32] | 7 | 156 |
| C=C1C[C@@H](c2nc3cc(OC)ccc3[nH]2)N(C(=O)c2ccsc2-c2ccc(C)c(C)c2)C1 [Ex. 6.39] | 106 | 9 |
| Cc1nc(C(=O)N2CCCC2c2nc3c(C(F)(F)F)cccc3[nH]2)c(-c2cccc(Cl)c2)s1 (centres unmarked) [Ex. 1.105] | 45 | 89 |
| Cc1nc(C(=O)N2CCCC2c2nc3cc(C)c(C)cc3[nH]2)c(-c2cccc(Cl)c2)s1 (centres unmarked) [Ex. 1.95] | 18 | 15 |
| C=C1C[C@@H](c2nc3c(Br)cccc3[nH]2)N(C(=O)c2cc(C)ccc2-n2nccn2)C1 [Ex. 6.64] | 142 | 33 |
| Cc1nc(C(=O)N2CC[C@H](C)[C@H]2c2nc3cc(C(F)(F)F)ccc3[nH]2)c(-c2ccc(Br)cc2)s1 [Ex. 4.142] | 6 | 2160 |
| C=C1C[C@@H](c2nc3ccc(Cl)c(C)c3[nH]2)N(C(=O)c2nc(C)sc2-c2cc(C)cc(C)c2)C1 [Ex. 6.124] | 15 | 4 |
| Cc1nc(C(=O)N2CCCC2c2nc3cc(F)c(Br)cc3[nH]2)c(-c2ccccc2)s1 (centres unmarked) [Ex. 1.136] | 81 | 278 |

| Structure (SMILES) | IC50 [1] [nM] | IC50 [2] [nM] |
| --- | --- | --- |
| Cc1nc(C(=O)N2CCCC2c2nc3c(C(C)C)cccc3[nH]2)c(-c2cccc(Cl)c2)s1 (centres unmarked) [Ex. 1.116] | 86 | 248 |
| COc1ccc2nc([C@@H]3C[C@@H](OC)CN3C(=O)c3ccc(C)cc3-n3nccn3)[nH]c2c1 [Ex. 3.21] | 2510 | 33 |
| Cc1nc(C(=O)N2CCC[C@@]2(C)c2nc3c(C)c(C)c(Br)cc3[nH]2)c(-c2ccccc2C)s1 [Ex. 5.271] | 5 | 6 |
| Cc1ccc(C(=O)N2CCC[C@@]2(C)c2nc3cc(OC(F)(F)F)ccc3[nH]2)c(-c2ccccc2)c1 [Ex. 5.242] | 56 | 401 |
| COc1ccc(-c2sc(C)nc2C(=O)N2CC[C@H](C)[C@H]2c2nc3cc(OC)c(OC)cc3[nH]2)cn1 [Ex. 4.53] | 111 | 4440 |
| CO[C@H]1C[C@@H](c2nc3ccc(Cl)c(C)c3[nH]2)N(C(=O)c2cc(C)ccc2-n2nccn2)C1 [Example 3.1, ((2S,4S)-2-(6-chloro-7-methyl-1H-benzo[d]imidazol-2-yl)-4-methoxypyrrolidin-1-yl)(5-methyl-2-(2H-1,2,3-triazol-2-yl)phenyl)methanone] | 102 | 69 |
| Cc1ccc(-c2cccc(F)c2)c(C(=O)N2CCC[C@@]2(C)c2nc3cc(C)c(C)cc3n2C)c1 [Ex. 7.30] | 9 | 12 |
| C[C@@]1(c2nc3cc(C(F)(F)F)c(Cl)cc3[nH]2)CCCN1C(=O)c1ccccc1-n1nccn1 [Ex. 5.142] | 8 | 24 |
| Cc1ccc(-n2cccn2)c(C(=O)N2CC[C@H](C)[C@H]2c2nc3cc(C)c(C)cc3[nH]2)c1 [Ex. 4.83] | 159 | 2320 |
| C=C1C[C@@H](c2nc3cc(OC)ccc3[nH]2)N(C(=O)c2nc(C)sc2-c2cccc(Cl)c2)C1 [Ex. 6.8] | 21 | 7 |
| CSc1cccc2nc([C@@H]3CCCN3C(=O)c3cc(C#N)ccc3-n3nccn3)[nH]c12 [Ex. 1.167] | 97 | 15 |
| C=C1C[C@@H](c2nc3cc(C)c(C)cc3[nH]2)N(C(=O)c2nc(C)ccc2-n2nccn2)C1 [Ex. 6.202] | 89 | 13 |
| C=C1C[C@@H](c2nc3cc(C)c(C)cc3[nH]2)N(C(=O)c2cc(F)ccc2-n2nccn2)C1 [Ex. 6.192] | 48 | 7 |
| CSc1cccc2nc([C@@H]3CCCN3C(=O)c3cncnc3-c3ccc(C)c(C)c3)[nH]c12 [Ex. 1.83] | 17 | 36 |
| Cc1ccc(-c2cccnc2)c(C(=O)N2CC[C@H](C)[C@H]2c2nc3c(C)c(Cl)ccc3[nH]2)c1F [Ex. 4.173] | 13 | 6330 |
| C=C1C[C@@H](c2nc3ccc(Cl)c(C)c3[nH]2)N(C(=O)c2c(-n3nccn3)ccc(OC)c2F)C1 [Ex. 6.133] | 3 | 2 |
| COc1ccc2nc([C@@H]3CCCN3C(=O)c3nc(C)sc3-c3cccc(Cl)c3)[nH]c2c1 [Ex. 1.25] | 364 | 90 |
| C=C1C[C@@H](c2nc3ccc(Cl)c(C)c3[nH]2)N(C(=O)c2c(-n3nccn3)ccc(C)c2F)C1 [Ex. 6.132] | 13 | 4 |

— patent publication US9732075B2, “Benzimidazole-proline derivatives” (IDORSIA PHARMACEUTICALS LTD, priority 2012, dated 2017)
